Where no end group is shown, it is not given here.
What was measured:
Cyt b559 in PSII = assay: Redox forms of Cyt b559 by stepwise reductive titration (absorption difference spectroscopy), reconstituted NaCl-washed PSII membranes; format: biochemical, spinach
Description: Hydroquinone-reduced minus ferricyanide-oxidized (1), ascorbate-reduced minus ferricyanide-oxidized (2), and dithionite-reduced minus ferricyanide-oxidized (3) difference spectra were used to estimate the amount of the HP, IP, and LP forms of Cyt b559, respectively. Each spectrum was an average of three independent measurements and normalized to the peak of the dithionite-reduced minus ferricyanide-oxidized difference spectrum. (B) Relative content of the HP, IP, and LP forms of Cyt b559 determined by stepwise reductive titration. Total amount of Cyt b559 is set as 100%. […] (*p < 0.05, Student’s t-test); n = 3, error bars = SEM.
PSII membranes, isolated from spinach leaves[56], were treated for 30 min with the buffer containing 1.5 M NaCl on ice to remove PsbP and PsbQ. […] In the control, MES buffer, without any peptide fragments, was used. After incubation for 1 h on ice, the reconstituted PSII samples were carried forward to determine the state of their redox forms of Cyt b559, oxygen-evolving activity, FTIR analysis and TL measurements. Where indicated, PSII samples were washed once, before the analysis, with buffer (25 mM MES-NaOH, pH 6.5, 5 mM NaCl, 5 mM CaCl2, 0.4 M sucrose).
PSII membranes were suspended at a Chl concentration of 75 μg ml^−1 in buffer (25 mM MES-NaOH, pH 6.5, 5 mM NaCl, 5 mM CaCl2, 0.4 M sucrose) and the different redox forms of Cyt b559 were determined at a wavelength of 559 nm, from the reduced minus oxidized difference absorption spectra between 520 and 580 nm, recorded as described previously[34][35][57] using a spectrophotometer equipped with a head-on photomultiplier tube (UV-2600; Shimadzu, Kyoto, Japan). Complete oxidation of Cyt b559 was achieved by treatment with 2 mM potassium ferricyanide (midpoint redox potential Em ~ 430 mV) followed by its stepwise reduction. The reduction of the HP form (Em ~ 400 mV), the IP form (Em ~ 200 mV), and the LP form (Em ~ 50 mV) of Cyt b559[7][58][59][60] were performed by adding 4 mM hydroquinone (Em ~ 280 mV), 5 mM sodium ascorbate (Em ~ 60 mV), and 10 mM sodium dithionite (Em ~ −660 mV) in a step-wise manner. The absorption difference at 559 nm, in difference spectra of hydroquinone-reduced minus ferricyanide-oxidized, ascorbate-reduced minus hydroquinone-reduced, and dithionite-reduced minus ascorbate-reduced Cyt b559, enable the content of HP, IP, and LP form of Cyt b559, to be deduced, respectively. Baselines were set by drawing a straight line between absorption differences at 540 and 580 nm.

PSII = assay: Oxygen-evolving activity of reconstituted PSII membranes (Clark-type oxygen electrode); format: biochemical, spinach; conditions: NaCl-washed PSII membranes, peptide:PSII 50:1 to 200:1, 5 mM CaCl2 and 5 mM NaCl, pH 6.5, 0.4 mM DCBQ; membranes without reconstitution = 100% (251 ~ 317 μmol O2 mg Chl^-1 h^-1); n = 3
Protocol: PSII oxygen-evolving activity was measured in the presence of 5 mM CaCl2 and 5 mM NaCl, and the rate of oxygen-evolution of PSII membranes without reconstitution was set at 100% (251 ~ 317 μmol O2 mg Chl^−1 h^−1 in independent experiments); n = 3, error bars = SEM. […] Oxygen-evolving activity here was measured in the presence of 5 mM CaCl2 and 5 mM NaCl, and the rate of oxygen-evolution for the PSII membranes without reconstitution (the control) was set at 100% (261 μmol O2 mg Chl^−1 h^−1).
PSII membranes, isolated from spinach leaves[56], were treated for 30 min with the buffer containing 1.5 M NaCl on ice to remove PsbP and PsbQ. […] In the control, MES buffer, without any peptide fragments, was used. After incubation for 1 h on ice, the reconstituted PSII samples were carried forward to determine the state of their redox forms of Cyt b559, oxygen-evolving activity, FTIR analysis and TL measurements. Where indicated, PSII samples were washed once, before the analysis, with buffer (25 mM MES-NaOH, pH 6.5, 5 mM NaCl, 5 mM CaCl2, 0.4 M sucrose). The oxygen-evolving activity of each PSII membrane sample was measured in this same buffer using a Clark-type oxygen-electrode (Hansatech, UK) in the presence of 0.4 mM 2,6-dichloro-p-benzoquinone (DCBQ) as an electron acceptor.

[1] = system: OEC (Mn4CaO5 cluster) in PSII; assay: Light-induced S2/S1 FTIR difference spectroscopy; format: biochemical, spinach; conditions: peptide:PSII 200:1, pH 6.0, 5 mM CaCl2, 5 mM NaCl, 10 °C, 1800–1200 cm^-1
Protocol: FTIR measurements were performed following the method reported previously[20][61] with some modifications. NaCl-washed PSII membranes were suspended (2.5 mg Chl ml^−1) in a buffer containing 4 mM MES-NaOH, 40 mM sucrose, 5 mM CaCl2, and 5 mM NaCl (pH 6.0). […] The resultant sample film was moderately hydrated by sealing the cell using another CaF2 plate and a silicone spacer (0.5 mm in thickness) enclosing 2 μl of 40% (v/v) glycerol solution without touching the sample. The sample temperature was adjusted to 10 °C by circulating cold water in a copper holder. Light-induced S2-minus-S1 difference spectra (S2/S1 spectra) were recorded using a spectrophotometer (VERTEX 80, Bruker Optics) equipped with an MCT detector (InfraRed D313-L) at 4 cm^−1 resolution (20, 61). A Ge filter to cut IR light at >2200 cm^−1 (Andover, 4.50ILP-25) was placed in the IR path in front of the sample to improve the signal-to-noise ratios of spectra as well as to block a He-Ne laser beam from the interferometer. Illumination was provided by a Q-switched Nd:YAG laser (INDI-40-10; 532 nm, ~ 7 ns full width at half-maximum, and ~ 7 mJ pulse^–1 cm^–2 at the sample surface; Spectra-Physics, UK). Single-beam spectra were recorded with 100 scans (~50-s accumulation) before and after single-flash illumination to calculate a difference spectrum, and the measurements were repeated 20 times with an interval of 25 min.

[2] = molecular target: PsbE protein, the α subunit of Cytochrome b559 (spinach (endogenous in PSII membranes from spinach leaves)) (UniProt P69383)

Substance	Relative content of the HP form of Cyt b559 (Cyt b559 in PSII; NaCl-washed PSII membranes reconstituted with PsbP proteins at 4:1 or peptides at 200:1 (to PSII), 1 h on ice, 25 mM MES-NaOH pH 6.5, 5 mM NaCl, 5 mM CaCl2, 0.4 M sucrose, 559 nm, total Cyt b559 = 100%, n = 3 (controls: intact 59.3, NaCl-washed 33.7))	Relative content of the LP form of Cyt b559 (Cyt b559 in PSII; NaCl-washed PSII membranes reconstituted with PsbP proteins at 4:1 or peptides at 200:1 (to PSII), 1 h on ice, pH 6.5, total Cyt b559 = 100%, n = 3 (controls: intact 8.7, NaCl-washed 10.4))	Relative content of the IP form of Cyt b559 (Cyt b559 in PSII; NaCl-washed PSII membranes reconstituted with PsbP proteins at 4:1 or peptides at 200:1 (to PSII), 1 h on ice, pH 6.5, total Cyt b559 = 100%, n = 3 (controls: intact 32.0, NaCl-washed 55.9))	Restoration of HP Cyt b559 (in words) (Cyt b559 in PSII; reconstituted NaCl-washed PSII membranes, pH 6.5)	Rate of oxygen evolution (in words) (PSII)	S2/S1 FTIR spectral intensity [1]	content of the HP form of Cyt b559 in NaCl-washed PSII membranes after reconstitution at 4:1 (PsbP:PSII); about 34% without reconstitution [2]
pN15-∆A^1: pN15 lacking its N-terminal Ala^1 (YGEAANVFGKPKKN-NH2; UniProt P12302 83-96, looked up, fragment)	38.2%	13.6%	48.2%	This effect was not observed	none of these mutated pN15 fragments showed any inhibitory effect on oxygen evolution	moderate inhibitory effect	
recombinant PsbP-WT protein from Spinacia oleracea (from UniProt P12302 82-267) (natural protein)							58%
